Source: patent US20250171438A1 (Agios Pharmaceuticals, Inc., priority 2022, published 2025)

Molecular target: T1, human PAH with the R408W mutation (Homo sapiens, UniProt P00439, R408W)
T1 construct: expressed in transfected cells
T1 sequence (P00439 1-452 R408W): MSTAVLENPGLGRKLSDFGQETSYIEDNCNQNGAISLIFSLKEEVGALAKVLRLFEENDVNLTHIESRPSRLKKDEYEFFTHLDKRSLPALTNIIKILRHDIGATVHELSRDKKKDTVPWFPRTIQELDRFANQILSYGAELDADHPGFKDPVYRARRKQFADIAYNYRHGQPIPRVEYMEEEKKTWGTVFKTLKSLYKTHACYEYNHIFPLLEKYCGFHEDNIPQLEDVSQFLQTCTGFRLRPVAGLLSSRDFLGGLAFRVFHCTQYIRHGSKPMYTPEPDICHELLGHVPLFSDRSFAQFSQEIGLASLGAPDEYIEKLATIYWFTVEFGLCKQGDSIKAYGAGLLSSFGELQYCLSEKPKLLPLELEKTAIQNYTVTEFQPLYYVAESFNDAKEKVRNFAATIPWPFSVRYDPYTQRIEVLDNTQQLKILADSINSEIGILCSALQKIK
Test: Cell Based Phenylalanine Flux Assay
Settings: A375 cells expressing human R408W PAH; 24 hrs compound incubation; 13C-Tyrosine by LC-MS; average where tested multiple times; read-out: AC50

First: O=C(c1nnc(-c2ccccn2)o1)N1CCc2[nH]cnc2[C@@H]1c1nc2ccc(F)cc2s1 [Example 1719, (R)-(4-(6-fluorobenzo[d]thiazol-2-yl)-6,7-dihydro-1H-imidazo[4,5-c]pyridin-5(4H)-yl)(5-(pyridin-2-yl)-1,3,4-oxadiazol-2-yl)methanone]
Second: O=C(CCc1nccs1)N1CCc2[nH]cnc2[C@@H]1c1nc2ccc(F)cc2s1 [Example 1030, (R)-1-(4-(6-fluorobenzo[d]thiazol-2-yl)-6,7-dihydro-1H-imidazo[4,5-c]pyridin-5(4H)-yl)-3-(thiazol-2-yl)propan-1-one]
The AC50 of the first is lower: 1 to 5 µM for the first, greater than 5 µM for the second.

First: O=C(c1nc(Cl)cs1)N1CCc2[nH]cnc2[C@@H]1c1nc2ccccc2s1 [Example 1058, (R)-(4-(benzo[d]thiazol-2-yl)-6,7-dihydro-1H-imidazo[4,5-c]pyridin-5(4H)-yl)(4-chlorothiazol-2-yl)methanone]
Second: O=C(c1nc(Cl)cs1)N1CCc2[nH]cnc2[C@H]1c1nc2ccccc2[nH]1 [Example 917, (S)-(4-(1H-benzo[d]imidazol-2-yl)-6,7-dihydro-1H-imidazo[4,5-c]pyridin-5(4H)-yl)(4-chlorothiazol-2-yl)methanone]
The AC50 of the first is higher: 1 to 5 µM for the first, 0.5 to 1 µM for the second.

Compared with Cc1nc(C(C)(C)O)oc1C(=O)N1CCc2[nH]cnc2[C@@H]1c1nc2c(C(F)(F)F)cccc2s1 [Example 2116, (R)-(2-(2-hydroxypropan-2-yl)-4-methyloxazol-5-yl)(4-(4-(trifluoromethyl)benzo[d]thiazol-2-yl)-6,7-dihydro-1H-imidazo[4,5-c]pyridin-5(4H)-yl)methanone], Cc1nc(C(C)(C)O)oc1C(=O)N1CCc2[nH]cnc2[C@@H]1c1nc2ccccc2s1 [Example 1470, (R)-(4-(benzo[d]thiazol-2-yl)-6,7-dihydro-1H-imidazo[4,5-c]pyridin-5(4H)-yl)(2-(2-hydroxypropan-2-yl)-4-methyloxazol-5-yl)methanone] is higher in AC50: 1 to 5 µM for the first, greater than 5 µM for the second.

O=C(c1cnn(CC(F)(F)F)c1Cl)N1CCc2[nH]cnc2[C@H]1c1nc2c(F)cccc2s1 [Example 1967, (S)-(5-chloro-1-(2,2,2-trifluoroethyl)-1H-pyrazol-4-yl)(4-(4-fluorobenzo[d]thiazol-2-yl)-6,7-dihydro-1H-imidazo[4,5-c]pyridin-5(4H)-yl)methanone] and Cn1cc(C(=O)N2CCc3[nH]cnc3[C@H]2c2nc3c(F)cccc3s2)c(Cl)n1 [Example 1644] cannot be ordered by AC50: less than 0.5 µM for the first, less than 0.5 µM for the second.

First: O=C(C1CC1)N1CCc2[nH]cnc2[C@@H]1c1nc2cccc(F)c2s1 [Example 1260, (R)-cyclopropyl(4-(7-fluorobenzo[d]thiazol-2-yl)-6,7-dihydro-1H-imidazo[4,5-c]pyridin-5(4H)-yl)methanone]
Second: O=C(c1nncs1)N1CCc2[nH]cnc2[C@@H]1c1nc2cccc(F)c2s1 [Example 1265, (R)-(4-(7-fluorobenzo[d]thiazol-2-yl)-6,7-dihydro-1H-imidazo[4,5-c]pyridin-5(4H)-yl)(1,3,4-thiadiazol-2-yl)methanone]
The AC50 of the first is higher: greater than 5 µM for the first, 1 to 5 µM for the second.

Compared with O=C(c1nc2ccccc2o1)N1CCc2[nH]cnc2[C@H]1c1nc2ccccc2[nH]1 [Example 999, (S)-(4-(1H-benzo[d]imidazol-2-yl)-6,7-dihydro-1H-imidazo[4,5-c]pyridin-5(4H)-yl)(benzo[d]oxazol-2-yl)methanone], O=C(c1cnn2ccccc12)N1CCc2[nH]cnc2[C@@H]1c1nc2ccccc2[nH]1 [Example 922, (R)-(4-(1H-benzo[d]imidazol-2-yl)-6,7-dihydro-1H-imidazo[4,5-c]pyridin-5(4H)-yl)(pyrazolo[1,5-a]pyridin-3-yl)methanone] is higher in AC50: 1 to 5 µM for the first, greater than 5 µM for the second.

First: O=C(CC1CC1)N1CCc2[nH]cnc2[C@H]1c1nc2ccc(Cl)cc2[nH]1 [Example 954, (S)-1-(4-(6-chloro-1H-benzo[d]imidazol-2-yl)-6,7-dihydro-1H-imidazo[4,5-c]pyridin-5(4H)-yl)-2-cyclopropylethanone]
Second: O=C(Cc1ncc(C2CC2)s1)N1CCc2[nH]cnc2[C@@H]1c1nc2ccccc2s1 [Example 1460, (R)-1-(4-(benzo[d]thiazol-2-yl)-6,7-dihydro-1H-imidazo[4,5-c]pyridin-5(4H)-yl)-2-(5-cyclopropylthiazol-2-yl)ethanone]
The AC50 of the first is lower: less than 0.5 µM for the first, 1 to 5 µM for the second.

C[C@H](O)c1nc(C(F)F)c(C(=O)N2CCc3[nH]cnc3[C@H]2c2nc3c(C(F)(F)F)cccc3s2)o1 [Example 2113, (4-(difluoromethyl)-2-((S)-1-hydroxyethyl)oxazol-5-yl) ((S)-4-(4-(trifluoromethyl)benzo[d]thiazol-2-yl)-6,7-dihydro-1H-imidazo[4,5-c]pyridin-5(4H)-yl)methanone] and CC(C)(c1nc(C(F)F)c(C(=O)N2CCc3[nH]cnc3[C@H]2c2nc3c(F)cccc3s2)o1)S(C)(=O)=O [Example 2005] cannot be ordered by AC50: less than 0.5 µM for the first, less than 0.5 µM for the second.

First: CC(C)(F)c1ccc2c(C(=O)N3CCc4[nH]cnc4[C@H]3c3nc4ccccc4s3)cnn2c1 [Example 1479]
Second: Cc1ccc2c(C(=O)N3CCc4[nH]cnc4[C@H]3c3nc4c(F)cccc4s3)cnn2c1 [Example 1173, (S)-(4-(4-fluorobenzo[d]thiazol-2-yl)-6,7-dihydro-1H-imidazo[4,5-c]pyridin-5(4H)-yl)(6-methylpyrazolo[1,5-a]pyridin-3-yl)methanone]
The AC50 of the first is lower: less than 0.5 µM for the first, 0.5 to 1 µM for the second.

First: O=C(c1oc(C2(O)CCC2)nc1C(F)(F)F)N1CCc2[nH]cnc2[C@@H]1c1nc2c(F)cccc2s1 [Example 1638, (R)-(4-(4-fluorobenzo[d]thiazol-2-yl)-6,7-dihydro-1H-imidazo[4,5-c]pyridin-5(4H)-yl)(2-(1-hydroxycyclobutyl)-4-(trifluoromethyl)oxazol-5-yl)methanone]
Second: O=C(c1ocnc1CF)N1CCc2[nH]cnc2[C@@H]1c1nc2c(F)cccc2s1 [Example 2042, (R)-(4-(4-fluorobenzo[d]thiazol-2-yl)-6,7-dihydro-1H-imidazo[4,5-c]pyridin-5(4H)-yl)(4-(fluoromethyl)oxazol-5-yl)methanone]
The AC50 of the first is lower: less than 0.5 µM for the first, 1 to 5 µM for the second.

Compared with O=C(c1cncs1)N1CCc2[nH]cnc2[C@H]1c1nc2cc(F)ccc2s1 [Example 1193, (S)-(4-(5-fluorobenzo[d]thiazol-2-yl)-6,7-dihydro-1H-imidazo[4,5-c]pyridin-5(4H)-yl)(thiazol-5-yl)methanone], Cc1nc(C)c(C(=O)N2CCc3[nH]cnc3[C@H]2c2nc3ccccc3s2)o1 [Example 1163] is lower in AC50: 1 to 5 µM for the first, less than 0.5 µM for the second.

Compared with Cc1cccc2sc([C@H]3c4nc[nH]c4CCN3C(=O)c3ocnc3C#N)nc12 [Example 2020, (R)-5-(4-(4-methylbenzo[d]thiazol-2-yl)-4,5,6,7-tetrahydro-1H-imidazo[4,5-c]pyridine-5-carbonyl)oxazole-4-carbonitrile], Cn1cc(-c2ncc(C(=O)N3CCc4[nH]cnc4[C@@H]3c3nc4ccccc4s3)s2)cn1 [Example 1230, (R)-(4-(benzo[d]thiazol-2-yl)-6,7-dihydro-1H-imidazo[4,5-c]pyridin-5(4H)-yl)(2-(1-methyl-1H-pyrazol-4-yl)thiazol-5-yl)methanone] is lower in AC50: greater than 5 µM for the first, 1 to 5 µM for the second.

Compared with O=C(c1cnn2cc(F)ccc12)N1CCc2[nH]cnc2[C@H]1c1nc2ccccc2[nH]1 [Example 924, (S)-(4-(1H-benzo[d]imidazol-2-yl)-6,7-dihydro-1H-imidazo[4,5-c]pyridin-5(4H)-yl)(6-fluoropyrazolo[1,5-a]pyridin-3-yl)methanone], O=C(CCc1nccs1)N1CCc2[nH]cnc2[C@H]1c1ncc(Br)s1 [Example 2148] is higher in AC50: 0.5 to 1 µM for the first, 1 to 5 µM for the second.

Same assay, conditions: A375 cells expressing human R408W PAH; 24 hrs with compound; 13C-Tyrosine by LC-MS; average where tested multiple times; read-out: AC50

Compared with O=C(Cc1nccs1)N1CCc2[nH]cnc2C1c1nc2ccc(Br)cc2s1 (stereo not drawn), O=C(Cc1nccs1)N1CCc2[nH]cnc2C1c1nc2ccc(F)cc2s1 (stereo not drawn) is higher in AC50: 1 to 5 µM for the first, greater than 5 µM for the second.

O=C(c1cnn2cccc(F)c12)N1CCc2[nH]cnc2C1c1nc2ccc(F)cc2s1 (stereo not drawn) and O=C(c1cnn2ccccc12)N1CCc2[nH]cnc2C1c1nc2ccc(Br)cc2s1 (stereo not drawn) cannot be ordered by AC50: greater than 5 µM for the first, greater than 5 µM for the second.

CN(C)CCCc1nnc(C(=O)N2CCc3[nH]cnc3[C@H]2c2nc3ccccc3s2)o1 (single isomer, unassigned) and Cc1nnc(C(=O)N2CCc3[nH]cnc3C2c2nc3ccccc3s2)o1 (stereo not drawn) fall in the same range of AC50: 1 to 5 µM for the first, 1 to 5 µM for the second.

First: Cn1ccc(C(=O)N2CCc3[nH]cnc3C2c2nc3c(F)cccc3s2)n1 (stereo not drawn)
Second: Cn1nc(C(F)F)nc1C(=O)N1CCc2[nH]cnc2C1c1nc2c(F)cccc2s1 (stereo not drawn)
The AC50 of the first is higher: greater than 5 µM for the first, 1 to 5 µM for the second.

Cc1nnc(C(=O)N2CCc3[nH]cnc3[C@H]2c2nc3cc(Br)ccc3[nH]2)s1 (single isomer, unassigned) and O=C(c1nccs1)N1CCc2[nH]cnc2C1c1nc2cccc(F)c2[nH]1 (stereo not drawn) fall in the same range of AC50: 1 to 5 µM for the first, 1 to 5 µM for the second.

First: CC1CN(C(=O)c2cnco2)C(c2nc3c(F)cccc3s2)c2nc[nH]c21 (stereo not drawn)
Second: COC(=O)N1CC(C(=O)N2CCc3[nH]cnc3C2c2nc3c(F)cccc3s2)C1 (stereo not drawn)
The AC50 of the first is higher: greater than 5 µM for the first, 1 to 5 µM for the second.

First: O=C(c1cnn2cc(CO)ccc12)N1CCc2[nH]cnc2C1c1nc2ccccc2s1 (stereo not drawn)
Second: Cc1nc(-c2ccccn2)sc1C(=O)N1CCc2[nH]cnc2C1c1nc2ccccc2s1 (stereo not drawn)
The AC50 of the first is higher: greater than 5 µM for the first, 1 to 5 µM for the second.

O=C(CCc1cccs1)N1CCc2[nH]cnc2C1c1nc2ccccc2[nH]1 (stereo not drawn) and O=C(Cc1nc(C(F)(F)F)cs1)N1CCc2[nH]cnc2C1c1nc2ccc(Cl)cc2[nH]1 (stereo not drawn) fall in the same range of AC50: 1 to 5 µM for the first, 1 to 5 µM for the second.
